Reference: US11279708B2, “Amidino- and amino-rocaglates as novel translation inhibitors and anticancer agents” (priority 2019, dated 2022)
pIC50: −log10 of the molar value.

Assays:
eIF4A1:poly r(AG)8 RNA = biological target: T1, eIF4A1:poly r(AG)8 RNA (Homo sapiens, UniProt P60842); assay: fluorescence polarization (FP) assay, eIF4A1 binding to FAM-labelled RNA; conditions: 500 nM eIF4A1, 10 nM FAM-labelled RNA, screen at 10 μM compound
T1 construct: His6 (N); made in house; host or cells: E. coli BL21 (DE3)
T1 sequence (P60842 whole entry, species assumed): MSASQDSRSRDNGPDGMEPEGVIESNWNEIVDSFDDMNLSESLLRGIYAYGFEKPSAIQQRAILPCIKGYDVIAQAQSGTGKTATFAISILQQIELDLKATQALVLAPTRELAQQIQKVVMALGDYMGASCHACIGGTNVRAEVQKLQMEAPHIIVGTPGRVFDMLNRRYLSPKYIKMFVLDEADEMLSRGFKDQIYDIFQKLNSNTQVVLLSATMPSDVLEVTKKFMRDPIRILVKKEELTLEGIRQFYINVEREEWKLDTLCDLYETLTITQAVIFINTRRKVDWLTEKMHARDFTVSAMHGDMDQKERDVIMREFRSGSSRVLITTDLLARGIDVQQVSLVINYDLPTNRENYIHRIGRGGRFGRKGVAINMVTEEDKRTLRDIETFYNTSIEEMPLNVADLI
Text: Rocaglates similarly enhance RNA binding of eIF4A1 and eIF4A2. In order to rapidly evaluate the ability of rocaglates to stimulate binding of eIF4A to RNA, a fluorescence polarization (FP) assay using a FAM (fluorescein amidite)-labelled RNA probe (FIG. 18A) was used. […] Due to the high degree of shared amino acid identity between the two paralogs, their apparent similarity with respect to RNA binding activity and response to CR-1-31-B (23), and the fact that eIF4A1 is essential but eIF4A2 is not, eIF4A1 was used in the majority of our subsequent experiments.
Fluorescence Polarization (FP) Assays. Unless otherwise specified, eIF4A (500 nM) was incubated with 10 nM FAM-labelled RNA for 30 min in FP buffer (14.4 mM HEPES-NaOH (pH 8), 108 mM NaCl, 1 mM MgCl2, 14.4% glycerol, 0.1% DMSO, 2 mM DTT, 1 mM AMPPNP) at room temperature in black low volume 384 well plates (Corning 3820). FP readings were performed on a Pherastar FS microplate reader (BMG Labtech).
FIGS. 19A-19C. Rocaglate activity profiling. 19A. Assessing eIF4A1:poly r(AG)8 (SEQ ID NO: 2) RNA binding by FP in the presence of 10 μM rocaglate. Values are expressed relative to vehicle controls and data is rank ordered. n=3±SD. 19B. The change in polarization obtained with eIF4A1:poly r(AG)8 (SEQ ID NO: 2) and eIF4A2:poly r(AG)8 (SEQ ID NO: 2) RNA. Pearson r=0.814; p<0.0001. 19C. Inhibition of cap-dependent translation by rocaglates was measured using the indicated mRNA bicistronic reporter (4 ng/ul) in Krebs-2 extracts at a final compound concentration of 2 μM. n=3±SD.
FIG. 21. Assessing stimulation of eIF4A1:RNA binding by rocaglates and pateamine. FAM-labelled RNA was incubated in the presence of 500 nM eIF4A1 and the indicated concentrations of compound for 30 min, after which time FP measurements were taken. Limitations in WGD-57-591 availability prevented us from extending the titrations to 100 μM. The change in FP obtained relative to vehicle controls is presented. n=3±SD. FP results of competition assays in which preformed eIF4A1:rocaglate:FAM-poly r(AG)10 complexes were incubated in the presence of poly r(AG)10 (SEQ ID NO: 39) and dissociation measured as a function of time. n=3±SD.

NIH/3T3 cells = assay: Sulforhodamine B (SRB) cytotoxicity assay; type: cell-based
Method: In cellula activity of rocaglates. All compounds in the rocaglate collection were assessed for cytotoxic activity towards NIH/3T3 cells as well as the rocaglate-resistant line, eIF4A^em1JP, which harbors an F163L mutation in eIF4A1. This mutation was originally identified following selection for RocA-resistant yeast mutants and F163 was subsequently shown to be critical for stacking with ring C of RocA (2) (FIG. 4). Although eIF4A2 is also a target of rocaglates, eIF4A1 F163L is sufficient to confer resistance to rocaglate-induced translation inhibition and cytotoxicity, likely due to eIF4A1 being the more abundant isoform in NIH/3T3 cells (250-fold higher). […] Lastly, although effective at inhibiting cap-dependent translation in vitro, WGD-57-591 (no activity @ 40 nM) and WGD-57-590 (12% growth inhibition @ 40 nM) performed poorly in this assay.
Sulforhodamine B (SRB) assay. NIH/3T3 cells were seeded at a density of 1000 cells/well in a 96 well format and incubated in presence of each 40 nM compound. After 4 days of culture, cells were washed with PBS, fixed with 50% trichloroacetic (TCA) acid for 1 hour, and then stained with 0.5% sulforhodamine B in 1% acetic acid for 15 min. Plates were then washed 5 times with 1% acetic acid, dried, and the stained wells were resuspended with 10 mM Tris (pH 9) prior to measuring the absorbance at 510 nm using (Spectramax M5, Molecular Devices)
FIGS. 26A-26B. In cellula activity of rocaglates. 26A. Cytotoxicity of rocaglates towards NIH/3T3 (grey circle) and the NIH/3T3 rocaglate-resistant line, eIF4A^em1JP(redtriangle). Cells were exposed to 40 nM compound for 4 days and viability was measured using the SRB assay. n=3±SD. 26B. Rocaglates show different sequence preferences for inhibiting cap-dependent translation in cellula. HEK 293 cells were transfected with 0.5 μg of in vitro synthesized capped (AG)10-FF/HCV/Ren or (UC)10-FF/HCV/Ren mRNA and 1h later exposed to the indicated concentrations of compounds for an additional 6 h, at which time extracts were prepared and luciferase activity measured. n=3 SD.

eIF4A1:poly r(AG)10 = biological target: T2, eIF4A1:poly r(AG)10 (Homo sapiens, UniProt P60842); assay: FP competition assay, dissociation of eIF4A from (AG)10 RNA; type: binding; conditions: in the presence of compound
T2 construct: His6 (N); made in house; host or cells: E. coli BL21 (DE3)
T2 sequence (P60842 whole entry, species assumed): as above
Method: All of these identified compounds retained similar RNA sequence binding preference for eIF4A1 with a bias for polypurine-containing substrates over polypyrimidines (FIG. 17). […] Even in the presence of ATP, which stimulates release of eIF4A from RNA, the half-life of the complexes were much longer than the rates of translation initiation (median <1 min)
Rocaglates sequester eIF4F onto RNA. RocA (2) induced clamping of eIF4A to 5′ leader regions have been proposed to inhibit translation by blocking scanning of 43S PICs. We therefore sought to test if this mechanism was sufficient to account for the translation inhibition observed with RocA, CR-1-31-B (23), and the newly identified ADRs. We supplemented translation extracts programmed with m^7G-(AG)10-FF/HCV/Ren mRNA with wild-type (wt) or rocaglate-resistant eIF4A1(F163L) recombinant protein. […] Thus, if stabilization of endogenous eIF4A in translation extracts onto mRNA is sufficient to mediate translation inhibition, then the addition of recombinant eIF4A1^F163L should not be able to rescue this inhibition. […]
FIG. 21. […] FP results of competition assays in which preformed eIF4A1:rocaglate:FAM-poly r(AG)10 complexes were incubated in the presence of poly r(AG)10 (SEQ ID NO: 39) and dissociation measured as a function of time. n=3±SD.

| SMILES | stimulation of eIF4A1:RNA binding (in words) (eIF4A1:poly r(AG)8 RNA) | pIC50 (NIH/3T3 cells; 4 day exposure, read-out: IC50, cytotoxicity towards NIH/3T3 cells) | dissociation of eIF4A from (AG)10, t1/2 (eIF4A1:poly r(AG)10) [min] | rank among the top 15 cytotoxic rocaglates (NIH/3T3 cells; 40 nM, 4 days) [th] | stimulation of eIF4A1:RNA binding (in words) (eIF4A1:poly r(AG)8 RNA; listed as Silvestrol) |
| --- | --- | --- | --- | --- | --- |
| CONC(=O)[C@H]1[C@@H](O)[C@@]2(O)c3c(OC)cc(OC)cc3O[C@@]2(c2ccc(OC)cc2)[C@@H]1c1ccccc1 [CR-1-31-B] | preferentially stimulated binding of eIF4A1 to RNA harboring polypurine bases | ~8.07 | – | – | – |
| COc1ccc([C@@]23Oc4cc(OC)cc(OC)c4[C@]2(O)[C@H](O)[C@H](C(=O)N(C)C)[C@H]3c2ccccc2)cc1 [RocA, rocaglamide A] | activity similar to CR-1-31-B | – | 27 | – | – |
| COC(=O)[C@@H]1[C@@H](c2ccccc2)[C@]2(c3ccc(OC)cc3)Oc3cc(OC)cc(OC)c3[C@@]23N=C(C)N[C@@]13O [9b] | – | – | – | 10 | – |
| COC(=O)[C@H]1[C@@H](O)[C@@]2(O)c3c(OC)cc(O[C@@H]4O[C@@H]([C@H](O)CO)CO[C@H]4OC)cc3O[C@@]2(c2ccc(OC)cc2)[C@@H]1c1ccccc1 [silvestrol] | less potent across the concentrations tested | – | – | – | relatively weak activity |
